Laboratory results taken from patent publication US20100016244A1, “D-GLUCOPYRANOSE 1-[3,5-BIS (1,1-DIMETHYLETHY)-4-HYDROXYBENZOATE] AND ITS DERIVATIVES, PREPARATION AND USE THEREOF” (priority 2006, published 2010).
≈ marks a conversion by molar mass, not a printed value.

Legend:
HIV [1] = settings: cited from earlier work
physchem = settings: water, thermodynamic from solid
[2] = Studies on rats (progeny, mutagenic effect)
[3] = Solubility in water (tests 1-3); settings: for pH: after stirring for 48 H at 23° C. in water
[4] = test system: VHS (Herpes Simplex Virus); experiment: Virucidal activity on VHS (Herpes Simplex Virus), decrease in log by concentration and contact time; settings: for Decrease expressed in log: test n° 4
Method: Results of the tests conducted in the laboratory of Prof. Chiron, (Faculty of Pharmacy of Tours): [table] hypothesis: 10 mg/8 ml (solubility check) Stock-solution: 33.47 mg/24.10 ml (x 1.11 C) i.e.: 11.11 mg/8 ml [table]

HIV [5] = test system: HIV
[6] = test system: VHS (Herpes Simplex Virus); settings: from FR 2 668 931; cited from earlier work
enveloped-viruses = experiment: Active concentration on enveloped-viruses; settings: BHT versus RDW 031

For CC(C)(C)c1cc(C(=O)OCCOCCOCCOCCOCCOCCOCCOCCO)cc(C(C)(C)C)c1O [AVF1, 3.5-di-tert-butyl-4-hydroxybenzoate octa-oxy-ethylene glycol], which “decrease of HIV's infectivity” value (HIV [1]) is on record?
The value was 7 log.

Which results are given for CC(C)(C)c1cc(C(=O)OC2O[C@H](CO)[C@@H](O)[C@H](O)[C@H]2O)cc(C(C)(C)C)c1O (stereo partly drawn) [RDW031]?
solubility at 0.5 h (physchem; 23 °C): 40 µg/mL (≈ 97 µM); solubility at 12 h (physchem; 23 °C): 1200 µg/mL (≈ 2910 µM); solubility at 0.5 h (physchem; 100 °C): 1080 µg/mL (≈ 2620 µM); effects on progeny and mutagenic effect [2]: never shown any detectable effects; effect on polio virus (naked-virus) (polio virus): no effect; pH ([3]; Test no 3): pH = 5.9; active concentration, starting [4]: ≥ 0.0625%; Reduction expressed in log ([4]; 0.00125 mg/ml (1/1000), contact time 120 min): 0.31 log; Reduction expressed in log ([4]; 0.00250 mg/ml (1/500), contact time 60 min): 1.06 log; Reduction expressed in log ([4]; 0.00250 mg/ml (1/500), contact time 120 min): 1.15 log; Reduction expressed in log ([4]; 0.00625 mg/ml (1/200), contact time 60 min): 1.06 log; Reduction expressed in log ([4]; 0.02500 mg/ml (1/50), contact time 30 min): 0.31 log; Reduction expressed in log ([4]; 0.06250 mg/ml (1/20), contact time 30 min): 0.21 log; Reduction expressed in log ([4]; 0.25000 mg/ml (⅕), contact time 15 min): 0.00 log; Reduction expressed in log ([4]; 0.62500 mg/ml (½), contact time 15 min): 3.68 log; active concentration expressed ([4]; converted from % concentration): ≥ 0.0015 mol; Decrease expressed in log ([4]; 0.17028 mg/ml (⅕), contact time 15 min): 0.00 log; Decrease expressed in log ([4]; 0.17028 mg/ml (⅕), contact time 30 min): 0.00 log; Decrease expressed in log ([4]; 0.17028 mg/ml (⅕), contact time 60 min): 0.00 log; Decrease expressed in log ([4]; 0.17028 mg/ml (⅕), contact time 120 min): 0.00 log; Decrease expressed in log ([4]; 0.42570 mg/ml (½), contact time 60 min): 0.00 log; Decrease expressed in log ([4]; 0.42570 mg/ml (½), contact time 120 min): 1.48 log; Decrease expressed in log ([4]; 0.85140 mg/ml (pur), contact time 15 min): 1.25 log; Decrease expressed in log ([4]; 0.85140 mg/ml (pur), contact time 30 min): 1.86 log; Decrease expressed in log ([4]; 0.85140 mg/ml (pur), contact time 60 min): 2.15 log; Decrease expressed in log ([4]; 0.85140 mg/ml (pur), contact time 120 min): 2.32 log; reduction of the virulence of a HIV culture (HIV [5]): 5 log

What does the source list for CC(C)(C)c1cc(C(=O)O)cc(C(C)(C)C)c1O [BG4, 3,5-di-t-butyl-4-hydroxybenoic acid]?
Solubility 12 H at 23° C. ([3]; Test No 2, water, RDW031 batch RV 34): insoluble; Solubility after stirring for 48 H at 23° C. ([3]; Test no 3, 1 g + 100 ml H2O, RDW031 batch RV 41, BG4 from SIGMA-ALDRICH): 130 µg/mL; pH ([3]; Test no 3): pH = 5.6; Solubilité ½ H à 23° c. ([3]; water, ½ H at 23° C.): No measurable; Solubility ½ H at 100° C. ([3]; water, ½ H at 100° C., no desolubilization at room temperature): 0.84 g/litre (no; concentration required for effectiveness on VHS [6]: 0.5%; reduction of the virulence of a HIV culture (HIV [5]): 5 log

Which “molar active concentration relative to RDW 031” value (enveloped-viruses) does the source give for Cc1cc(C(C)(C)C)c(O)c(C(C)(C)C)c1 [BHT, butylhydroxytoluene] here?
The value was 100 times.
